Earlier results as cited in patent US12115245B2 (Xiamen University, priority 2019, dated 2024).
Where a SMILES comes first, the peptide text is derived from it.

Row | solubility in water / aqueous solutions | Compound
1 | very soluble in water | C[C@H](N)C(=O)N[C@@H](CCC(N)=O)C(=O)O [Ala-Gln, L-alanyl-L-glutamine] (H-Ala-Gln-OH)
2 | low solubility in aqueous solutions | NC(=O)CC[C@H](N)C(=O)O [Gln, Glutamine]
